Columns and labels:
BAX = BAX assay on leukemia SR cell line; assay type: cell-based, human; conditions: for BAX Concentration: ± SD
Method: 19. Read the concentrations for unknown samples and controls from the standard curve.
All standards, controls and samples should be run in duplicate. […]
desiccant back into the pouch and seal the ziploc. Store unused wells at 4 °C.
4. Pipet 100 μL of the Samples into the appropriate wells.
7. Empty the contents of the wells and wash by adding 400 μL of wash solution to every well.
8. Repeat the wash 4 more times for a total of 5 washes.
9. After the final wash, empty or aspirate the wells and firmly tap the plate on a lint free paper towel to remove any remaining wash buffer.
10. Pipet 100 μL of yellow Antibody into each well, except the Blank.
12. Empty the contents of the wells and wash by adding 400 μL of wash solution to every
13. Repeat the wash 4 more times for a total of 5 washes.
14. After the final wash, empty or aspirate the wells and firmly tap the plate on a lint free
17. Empty the contents of the wells and wash by adding 400 μL of wash solution to every
18. Repeat the wash 4 more times for a total of 5 washes.
19. After the final wash, empty or aspirate the wells and firmly tap the plate on a lint free
20. Pipet 100 μL of Substrate Solution into each well.
21. Incubate for 30 minutes at room temperature on a plate shaker at ~500 rpm.
1. Mix all reagents thoroughly without foaming before use.
3. Take caution not to scratch the surface of the microwells.
5. Use the microwell strips immediately after washing or place upside down on a wet absorbent paper for not longer than 15 minutes.
Prepare standard (1:2 dilution) in duplicate ranging from 32

ROS in SR cells = assay: Mitochondrial production of ROS; assay type: cell-based, human; conditions: 30 min at 37 °C
Method: Mitochondria play an essential role in the propagation of apoptosis. It is reported that, at an early stage, apoptotic stimuli are capable of modifying the mitochondrial transmembrane potential (Δψmt). Δψmt was recorded by the fluorescence of the dye JC-1.20. […] . The disruption of Δψmt is associated with the appearance of annexin V positivity in the treated cells when they are in an early apoptotic stage. It is documented that the dissipation of Δψmt is characteristic of apoptosis, and this was indicated with both microtubule-stabilizing and -destabilizing agents in different cell types. […] Mitochondrial membrane depolarization is associated with mitochondrial production of ROS [35]. Therefore, we investigated whether ROS production increased after treatment with the test compounds.
Figure 13 Mitochondrial production of ROS in SR cells with 3a and colchicine reference compared to control. […]
5. Adjust the cell concentration so at least 1 x10^4 cells should be analyzed per experimental condition. […] Mean fluorescence intensity in Ex/Em = 495/529 nm can be quantified and compared between untreated cells and cells treated with test compounds, or between different cell types. […]
4. For adherent cells: remove the ROS Label, add 100 μl of ROS Assay Buffer or PBS and measure fluorescence immediately, or treat the cells with 100 μL of diluted test compound(s) for desired period of time. […]

U251 = assay: NCI five-dose assay; assay type: cell-based; conditions: CNS Cancer U251
NCI/ADR-RES = assay: NCI five-dose assay; assay type: cell-based; conditions: Homo sapiens, Ovarian Cancer NCI/ADR-RES
NCI-H226 = assay: NCI five-dose assay; assay type: cell-based; conditions: Homo sapiens, Non-Small-Cell Lung Cancer NCI-H226
MDA-MB-468 = assay: NCI five-dose assay
MCF7 = assay: NCI five-dose assay; assay type: cell-based, human; conditions: Breast Cancer MCF7
HS 578T = assay: NCI five-dose assay; assay type: cell-based; conditions: Breast Cancer HS 578T
SF-268 = assay: NCI five-dose assay; assay type: cell-based; conditions: Homo sapiens, CNS Cancer SF-268
NCI-H322M = assay: NCI five-dose assay; assay type: cell-based, human; conditions: Non-Small-Cell Lung Cancer NCI-H322M
BT-549 = assay: NCI five-dose assay; assay type: cell-based, human; conditions: Breast Cancer BT-549
[1] = read-out: GI50 Concentration/Cell Line
[2] = Homo sapiens, read-out: GI50 Concentration/Cell Line

COc1cc2c(c(OC)c1OC)-c1ccc(OC)c(=O)cc1[C@@H](NC(C)=O)CC2 [Colchicine, colchicine, reference compound]
BAX Concentration (BAX): 341.8 ± 4.310 pg/mL | ROS % of control (ROS in SR cells): 96.18%

COC(=O)C=C1SC(=NNC(=O)c2cc3ccc2CCc2ccc(cc2)CC3)N(c2ccccc2)C1=O [Compound 3a]
TGI Concentration/Cell Line (U251): 4.00 µM | GI50 (U251; Homo sapiens, U-251, read-out: GI50 Concentration/Cell Line): 1.89 µM | CC50 (U251; Homo sapiens, U-251, read-out: LC50 (the source's name)): 8.47 µM | LC50 (NCI/ADR-RES): > 100 µM | GI50 (NCI/ADR-RES; [1]): 2.92 µM | LC50 (concentration killing 50% of tumour cells) (NCI-H226): > 100 µM | GI50 (NCI-H226; [1]): 4.38 µM | TGI Concentration/Cell Line (MDA-MB-468; Breast Cancer MDA-MB-468): 3.74 µM | GI50 (MDA-MB-468; Homo sapiens, MDA-MB-468, read-out: GI50 Concentration/Cell Line): 1.84 µM | CC50 (MDA-MB-468; Homo sapiens, MDA-MB-468, read-out: LC50): 7.61 µM | TGI Concentration/Cell Line (MCF7): 4.95 µM | GI50 (MCF7; [2]): 1.87 µM | TGI Concentration/Cell Line (HS 578T): >100 µM | GI50 (HS 578T; [2]): 3.49 µM | CC50 (HS 578T; Homo sapiens, read-out: LC50 (the source's name)): > 100 µM | GI50 (SF-268; [1]): 3.09 µM | CC50 (SF-268; read-out: LC50 (the source's name)): > 100 µM | GI50 (NCI-H322M; [2]): 2.02 µM | TGI Concentration/Cell Line (NCI-H322M): 4.75 µM | BAX Fold Change (BAX; relative to control): ~7.98 fold | BAX Concentration (BAX): 359 ± 3.830 pg/mL | ROS % of control (ROS in SR cells): 112.10% | TGI Concentration/Cell Line (BT-549): 5.35 µM | GI50 (BT-549; [2]): 2.22 µM
